Results from PubChem BioAssay (NCI).
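Results reflect a 48-hour exposure of cells in 96-well plates to compound at five concentrations. TGI denotes the concentration required for complete inhibition of growth.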

Legend:
Test in all cases: growth of human tumour cells (NCI), 48 h
NCI-H226 lung = system: NCI-H226 lung
RXF 393 renal = system: RXF 393 renal
DMS 114 small cell lung = system: DMS 114 small cell lung
HCC-2998 colon = system: HCC-2998 colon
SK-MEL-28 melanoma = system: SK-MEL-28 melanoma
A549 NSCLC = system: A549 NSCLC
HT29 colon = system: HT29 colon
U251 CNS = system: U251 CNS
RXF-631 renal = system: RXF-631 renal
NCI-H460 lung = system: NCI-H460 lung
SN12C renal = system: SN12C renal
CAKI-1 renal = system: CAKI-1 renal
LOX IMVI melanoma = system: LOX IMVI melanoma
RPMI-8226 leukemia = system: RPMI-8226 leukemia
OVCAR-4 ovarian = system: OVCAR-4 ovarian
M14 melanoma = system: M14 melanoma
SF-539 CNS = system: SF-539 CNS
IGROV1 ovarian = system: IGROV1 ovarian
EKVX NSCLC = system: EKVX NSCLC
UO-31 renal = system: UO-31 renal
KM12 colon = system: KM12 colon
CCRF-CEM leukemia = system: CCRF-CEM leukemia
KM20L2 colon = system: KM20L2 colon
HOP-92 NSCLC = system: HOP-92 NSCLC
SW-620 colon = system: SW-620 colon
LXFL 529 NSCLC = system: LXFL 529 NSCLC
HCT-15 colon = system: HCT-15 colon
K-562 leukemia = system: K-562 leukemia
HOP-62 NSCLC = system: HOP-62 NSCLC
M19-MEL melanoma = system: M19-MEL melanoma
SNB-19 CNS = system: SNB-19 CNS
OVCAR-8 ovarian = system: OVCAR-8 ovarian
ACHN renal = system: ACHN renal
UACC-257 melanoma = system: UACC-257 melanoma
SNB-78 CNS = system: SNB-78 CNS
786-0 renal = system: 786-0 renal
SK-MEL-5 melanoma = system: SK-MEL-5 melanoma
DMS 273 small cell lung = system: DMS 273 small cell lung
COLO 205 colon = system: COLO 205 colon
HCT-116 colon = system: HCT-116 colon
SF-268 CNS = system: SF-268 CNS
OVCAR-3 ovarian = system: OVCAR-3 ovarian
DLD-1 colon = system: DLD-1 colon
SK-OV-3 ovarian = system: SK-OV-3 ovarian
HL-60(TB) leukemia = system: HL-60(TB) leukemia
TK-10 renal = system: TK-10 renal
SK-MEL-2 melanoma = system: SK-MEL-2 melanoma
SR leukemia = system: SR leukemia
MALME-3M melanoma = system: MALME-3M melanoma
MOLT-4 leukemia = system: MOLT-4 leukemia
NCI-H23 lung = system: NCI-H23 lung
NCI-H522 lung = system: NCI-H522 lung
SNB-75 CNS = system: SNB-75 CNS
A498 renal = system: A498 renal
OVCAR-5 ovarian = system: OVCAR-5 ovarian
UACC-62 melanoma = system: UACC-62 melanoma
XF 498 CNS = system: XF 498 CNS
SF-295 CNS = system: SF-295 CNS
HOP-18 NSCLC = system: HOP-18 NSCLC

## Cc1nccc2c1cnc1ccnn12
NCI-H226 lung
  TGI: > 100 µM
RXF 393 renal
  TGI: > 100 µM
DMS 114 small cell lung
  TGI: > 100 µM
HCC-2998 colon
  TGI: > 100 µM
SK-MEL-28 melanoma
  TGI: > 100 µM
A549 NSCLC
  TGI: > 100 µM
HT29 colon
  TGI: > 100 µM
U251 CNS
  TGI: > 100 µM
RXF-631 renal
  TGI: > 100 µM
NCI-H460 lung
  TGI: > 100 µM
SN12C renal
  TGI: > 100 µM
CAKI-1 renal
  TGI: > 100 µM
LOX IMVI melanoma
  TGI: > 100 µM
RPMI-8226 leukemia
  TGI: > 100 µM
OVCAR-4 ovarian
  TGI: > 100 µM
M14 melanoma
  TGI: > 100 µM
SF-539 CNS
  TGI: > 100 µM
IGROV1 ovarian
  TGI: > 100 µM
EKVX NSCLC
  TGI: > 100 µM
UO-31 renal
  TGI: > 100 µM
KM12 colon
  TGI: > 100 µM
CCRF-CEM leukemia
  TGI: > 100 µM
KM20L2 colon
  TGI: > 100 µM
HOP-92 NSCLC
  TGI: > 100 µM
SW-620 colon
  TGI: > 100 µM
LXFL 529 NSCLC
  TGI: > 100 µM
HCT-15 colon
  TGI: > 100 µM
K-562 leukemia
  TGI: > 100 µM
HOP-62 NSCLC
  TGI: > 100 µM
M19-MEL melanoma
  TGI: > 100 µM
SNB-19 CNS
  TGI: > 100 µM
OVCAR-8 ovarian
  TGI: > 100 µM
ACHN renal
  TGI: > 100 µM
UACC-257 melanoma
  TGI: > 100 µM
SNB-78 CNS
  TGI: > 100 µM
786-0 renal
  TGI: > 100 µM
SK-MEL-5 melanoma
  TGI: > 100 µM
DMS 273 small cell lung
  TGI: > 100 µM
COLO 205 colon
  TGI: > 100 µM
HCT-116 colon
  TGI: > 100 µM
SF-268 CNS
  TGI: > 100 µM
OVCAR-3 ovarian
  TGI: > 100 µM
DLD-1 colon
  TGI: > 100 µM
SK-OV-3 ovarian
  TGI: > 100 µM
HL-60(TB) leukemia
  TGI: > 100 µM
TK-10 renal
  TGI: > 100 µM
SK-MEL-2 melanoma
  TGI: > 100 µM
SR leukemia
  TGI: > 100 µM
MALME-3M melanoma
  TGI: > 100 µM
MOLT-4 leukemia
  TGI: > 100 µM
NCI-H23 lung
  TGI: > 100 µM
NCI-H522 lung
  TGI: > 100 µM
SNB-75 CNS
  TGI: > 100 µM
A498 renal
  TGI: > 100 µM
OVCAR-5 ovarian
  TGI: > 100 µM

## COc1ccc(/C=C/c2nc(=S)[nH][nH]2)cc1
NCI-H226 lung
  TGI: > 100 µM
RXF 393 renal
  TGI: > 100 µM
DMS 114 small cell lung
  TGI: > 100 µM
HCC-2998 colon
  TGI: > 100 µM
SK-MEL-28 melanoma
  TGI: > 100 µM
A549 NSCLC
  TGI: > 100 µM
HT29 colon
  TGI: > 100 µM
U251 CNS
  TGI: > 100 µM
RXF-631 renal
  TGI: > 100 µM
NCI-H460 lung
  TGI: > 100 µM
SN12C renal
  TGI: > 100 µM
CAKI-1 renal
  TGI: > 100 µM
LOX IMVI melanoma
  TGI: > 100 µM
RPMI-8226 leukemia
  TGI: > 100 µM
OVCAR-4 ovarian
  TGI: > 100 µM
M14 melanoma
  TGI: > 100 µM
SF-539 CNS
  TGI: > 100 µM
UACC-62 melanoma
  TGI: > 100 µM
IGROV1 ovarian
  TGI: > 100 µM
EKVX NSCLC
  TGI: > 100 µM
UO-31 renal
  TGI: > 100 µM
CCRF-CEM leukemia
  TGI: > 100 µM
KM20L2 colon
  TGI: > 100 µM
HOP-92 NSCLC
  TGI: > 100 µM
SW-620 colon
  TGI: > 100 µM
LXFL 529 NSCLC
  TGI: > 100 µM
HCT-15 colon
  TGI: > 100 µM
K-562 leukemia
  TGI: > 100 µM
M19-MEL melanoma
  TGI: > 100 µM
SNB-19 CNS
  TGI: > 100 µM
OVCAR-8 ovarian
  TGI: > 100 µM
ACHN renal
  TGI: > 100 µM
UACC-257 melanoma
  TGI: > 100 µM
SNB-78 CNS
  TGI: > 100 µM
786-0 renal
  TGI: > 100 µM
XF 498 CNS
  TGI: > 100 µM
SK-MEL-5 melanoma
  TGI: > 100 µM
DMS 273 small cell lung
  TGI: > 100 µM
HCT-116 colon
  TGI: > 100 µM
SF-268 CNS
  TGI: > 100 µM
OVCAR-3 ovarian
  TGI: > 100 µM
DLD-1 colon
  TGI: > 100 µM
SF-295 CNS
  TGI: > 100 µM
HL-60(TB) leukemia
  TGI: > 100 µM
TK-10 renal
  TGI: > 100 µM
SK-MEL-2 melanoma
  TGI: > 100 µM
SR leukemia
  TGI: > 100 µM
MALME-3M melanoma
  TGI: > 100 µM
MOLT-4 leukemia
  TGI: > 100 µM
NCI-H23 lung
  TGI: > 100 µM
NCI-H522 lung
  TGI: > 100 µM
SNB-75 CNS
  TGI: > 100 µM
A498 renal
  TGI: > 100 µM
OVCAR-5 ovarian
  TGI: > 100 µM

## COc1ccc(/C(Cl)=C(\C=O)c2ccc(Br)cc2)cc1OC
NCI-H226 lung
  TGI: > 100 µM
RXF 393 renal
  TGI: > 100 µM
HCC-2998 colon
  TGI: > 100 µM
SK-MEL-28 melanoma
  TGI: > 100 µM
A549 NSCLC
  TGI: > 100 µM
HT29 colon
  TGI: > 100 µM
U251 CNS
  TGI: > 100 µM
RXF-631 renal
  TGI: > 100 µM
NCI-H460 lung
  TGI: > 100 µM
SN12C renal
  TGI: > 100 µM
CAKI-1 renal
  TGI: > 100 µM
LOX IMVI melanoma
  TGI: > 100 µM
RPMI-8226 leukemia
  TGI: > 100 µM
HOP-18 NSCLC
  TGI: > 100 µM
OVCAR-4 ovarian
  TGI: > 100 µM
M14 melanoma
  TGI: > 100 µM
SF-539 CNS
  TGI: 67.1 µM
UACC-62 melanoma
  TGI: > 100 µM
IGROV1 ovarian
  TGI: > 100 µM
EKVX NSCLC
  TGI: > 100 µM
UO-31 renal
  TGI: > 100 µM
KM12 colon
  TGI: > 100 µM
KM20L2 colon
  TGI: > 100 µM
HOP-92 NSCLC
  TGI: 72.6 µM
SW-620 colon
  TGI: > 100 µM
LXFL 529 NSCLC
  TGI: > 100 µM
HCT-15 colon
  TGI: > 100 µM
K-562 leukemia
  TGI: > 100 µM
HOP-62 NSCLC
  TGI: > 100 µM
M19-MEL melanoma
  TGI: > 100 µM
SNB-19 CNS
  TGI: > 100 µM
OVCAR-8 ovarian
  TGI: > 100 µM
ACHN renal
  TGI: > 100 µM
UACC-257 melanoma
  TGI: > 100 µM
SNB-78 CNS
  TGI: > 100 µM
786-0 renal
  TGI: > 100 µM
XF 498 CNS
  TGI: 39.8 µM
SK-MEL-5 melanoma
  TGI: > 100 µM
DMS 273 small cell lung
  TGI: > 100 µM
COLO 205 colon
  TGI: > 100 µM
SF-268 CNS
  TGI: > 100 µM
OVCAR-3 ovarian
  TGI: > 100 µM
DLD-1 colon
  TGI: > 100 µM
SF-295 CNS
  TGI: 67.9 µM
SK-OV-3 ovarian
  TGI: > 100 µM
HL-60(TB) leukemia
  TGI: > 100 µM
TK-10 renal
  TGI: > 100 µM
SK-MEL-2 melanoma
  TGI: 74.4 µM
MALME-3M melanoma
  TGI: > 100 µM
MOLT-4 leukemia
  TGI: > 100 µM
NCI-H23 lung
  TGI: > 100 µM
NCI-H522 lung
  TGI: > 100 µM
SNB-75 CNS
  TGI: 30 µM
A498 renal
  TGI: > 100 µM
OVCAR-5 ovarian
  TGI: > 100 µM
